The results in this text go back to publication PMC10600239, “Selective MCL-1 inhibitor ABBV-467 is efficacious in tumor models but is associated with cardiac troponin increases in patients” (Communications Medicine, 2023).

One assay deals with AMO-1 cells. Nature of the assay: In vitro cell viability assay (CellTiter-Glo). It counts as cell-based, human. The protocol: (§1) All cell lines were grown and treated in RPMI 1640 or Dulbecco’s modified Eagle medium (Sigma, St. Louis, MO) supplemented with 10% fetal bovine serum (Gibco) or 10% human serum (Sigma) and maintained in a humidified incubator at 5% CO2 and 37 °C. DLD-1, MV4-11, NCI-H929 (all ATCC, Manassas, VA, USA) and AMO-1 (DSMZ, Braunschweig, Germany) cells were plated 4000 cells per well in 384-well tissue culture plates and treated with compounds of interest for 24 h at 37 °C, 5% CO2 humidified incubator. Each concentration was tested in duplicate at least 3 separate times. Adherent cells were allowed to adhere overnight prior to treatment. Alternatively, AMO-1 or NCI-H929 cells were treated with ABBV-467 for the indicated contact times (1–24 h) at 37 °C in a 5% CO2 humidified incubator and washed 3 times with compound-free media prior to incubation for the remainder of a 24-h treatment period. Cell viability was subsequently determined using CellTiter-Glo (Promega, Madison, WI, USA) according to the manufacturer’s instructions.
(§2) For in vitro viability assays, mean EC50 and EC90 values were determined from the resulting dose-response curves from at least 3 independent experiments, and depict the mean ± standard error of the mean.
(§3) Fig. 2 Apoptosis induced by ABBV-467 is mechanism based and induces cell death in MCL-1-dependent cell lines after short target engagement periods. H929 cells were treated with ABBV-467 in the presence or absence of the pan-caspase inhibitor z-VAD-fmk (50 µM) and the impact on caspase-3/7 activation (a), mitochondrial membrane potential (ΔΨm; b), and apoptosis (c) determined. Alternatively, BAK-deficient SKBR3 cells were treated with ABBV-467 for 24 h and the impact on cell viability compared with the parental cell line, determined by CellTiter-Glo. Inset depicts a western blot of BAK and BAX expression in SKBR3 cell variants using GAPDH as a loading control. Each of the 3 proteins were probed on separate blots (d). Data in (a–d) are presented as the mean ± standard error of the mean. H929 and AMO-1 cells were treated with ABBV-467 at the indicated concentrations and the impact on caspase-3/7 activation and viability (DRAQ7-positive) cells determined over time by Incucyte®. Data are presented as the mean ± standard deviation (e). H929 or AMO-1 cells were cultured in media containing 10% human serum and treated with ABBV-467 for the indicated contact times. Cells were subsequently washed 3 times with drug-free media and incubated in drug-free media for the remainder of the 24-h treatment period at 37 °C before cell viability was determined by CellTiter-Glo. Mean EC50 and EC90 values were determined from the resulting dose-response curves from at least 3 independent experiments, each assessed in quadruplicate, and depict the mean ± standard error of the mean. Presented ABBV-467 dose-response curves in H929 and AMO-1 cells were compiled from at least 3 independent experiments (f).
For orientation: Cellular ATP, detected with luciferase, serves as a proxy for viable cell number.

The next assay deals with H929 cells. Put plainly: In vitro cell viability assay (CellTiter-Glo). Format: cell-based, human. The protocol:
as §1, §2, §3

Another assay deals with DLD-1 cells. Nature of the assay: In vitro cell viability assay (CellTiter-Glo). The conditions noted are these: Homo sapiens. It counts as cell-based, human. The protocol: as §1, §2
The next assay concerns MV4-11 cells. Put plainly: In vitro cell viability assay (CellTiter-Glo). It counts as cell-based, human. The protocol:
as §1, §2

Another assay has as its system SKBR3 cells. Nature of the assay: Cell viability of parental and BAK-, BAX-, BCL2L11-, PMAIP1-deficient SKBR3 cells (CellTiter-Glo). Format: cell-based. Also noted: SKBR3 BAK Fig 2D: unit not given here. The protocol:
as §3
Supplementary Fig. S5: SKBR3 cells deficient in BAX, BAK , PM AIP 1 (gene encoding the protein NOXA),
BCL 2L 11 (gene encoding the protein BIM) were treated with ABBV-467 for 24 hours and the impact on
cell death compared to the parental cell line determined by CellTiter- Glo™.

Setting [1] is: Homo sapiens, AMO1, 24 h, read-out: AMO-1 EC50 (nM, 10% FBS), 10% FBS, 24 h continuous treatment.
Where [2] appears, read: Homo sapiens, NCI-H929, 24 h, read-out: H929 EC50 (nM, 10% FBS), 10% FBS, 24 h continuous treatment.
Setting [3] is: DLD-1, read-out: DLD-1 EC50 (nM), 10% FBS, 24 h continuous treatment.
[4] abbreviates: Homo sapiens, MV4-11, 24 h, read-out: MV4-11 EC50 (nM, 10% FBS), 10% FBS, 24 h continuous treatment.
Where [5] appears, read: AMO-1, individual determinations, read-out: Individual EC50.
[6] abbreviates: Homo sapiens, AMO1, AMO-1, arithmetic mean, read-out: Arithmetic Mean EC50 nM.
Where [7] appears, read: Homo sapiens, AMO1, AMO-1, arithmetic mean, read-out: Arithmetic Mean EC50 µM.
[8] abbreviates: Homo sapiens, AMO1, AMO-1, individual determinations, read-out: Individual EC50.
Setting [9] is: Homo sapiens, NCI-H929, NCI-H929, arithmetic mean, read-out: Arithmetic Mean EC50 nM.
[10] abbreviates: Homo sapiens, NCI-H929, NCI-H929, arithmetic mean, read-out: Arithmetic Mean EC50 µM.
The mark [11] stands for this setting: NCI-H929, individual determinations, read-out: Individual EC50.
Setting [12] is: DLD-1, arithmetic mean, read-out: Arithmetic Mean EC50.
Where [13] appears, read: DLD-1, individual determinations, read-out: Individual EC50.
Setting [14] is: Homo sapiens, MV4-11, MV4-11, arithmetic mean, read-out: Arithmetic Mean EC50 nM.
Where [15] appears, read: Homo sapiens, MV4-11, MV4-11, arithmetic mean, read-out: Arithmetic Mean EC50 µM.
Setting [16] is: Homo sapiens, MV4-11, MV4-11, individual determinations, read-out: Individual EC50.
Setting [17] is: MV4-11, individual determinations, read-out: Individual EC50.

Where “and” joins values, the source holds several entries; their conditions need not be identical. Equal entries are not always repeated. Where two headings read alike, the source gives them in different places.

A word on the EC50: it is the concentration giving half of the maximal effect. Consider `CO[C@H]1/C=C/C[C@H](C)[C@@H](C)S(=O)(=O)NC(=O)c2ccc3c(c2)N(C[C@@H]2CC[C@H]21)C[C@@]1(CCCc2cc(Cl)ccc21)CO3` [AMG 176, reference compound], for which the EC50 was 90.6 nM in the assay on AMO-1 cells (setting [1]), 195 nM in the assay with H929 cells (setting [2]), > 10000 nM with DLD-1 cells (setting [3]) and 106 nM with MV4-11 cells (setting [4]).
As for `CO[C@]1(CN2CCN3CCCC[C@@H]3C2)/C=C/C[C@H](C)[C@@H](C)S(=O)(=O)NC(=O)c2ccc3c(c2)N(C[C@@H]2CC[C@H]21)C[C@@]1(CCCc2cc(Cl)ccc21)CO3` [AMG 397, reference compound], the EC50 in the assay with AMO-1 cells (setting [5]) is 13.1 nM and 12.8 nM; in the assay on AMO-1 cells (setting [1]) it was 13.5 nM; in the assay with AMO-1 cells (setting [6]), 13.5 nM; in the assay on AMO-1 cells (setting [7]), 13.5 nM; in the assay with AMO-1 cells (setting [8]), 14.8 nM; in the assay with H929 cells (setting [2]), 13 nM. Besides, the EC50 is 13 nM in the assay on H929 cells (setting [9]); 13 nM with H929 cells (setting [10]); 12.7 nM with H929 cells (Homo sapiens, NCI-H929, NCI-H929, individual determinations, read-out: Individual EC50); 13.4 nM and 12.9 nM with H929 cells (setting [11]); > 10000 nM with DLD-1 cells (setting [3]); > 10000 nM with DLD-1 cells (setting [12]). The EC50 with DLD-1 cells (setting [13]) was > 10000 nM; in the assay on MV4-11 cells (setting [4]) it was 43.6 nM; in the assay with MV4-11 cells (setting [14]), 43.6 nM; in the assay with MV4-11 cells (setting [15]), 43.6 nM; in the assay on MV4-11 cells (setting [16]), 44.3 nM; in the assay on MV4-11 cells (setting [17]), 42 nM and 44.6 nM.
Regarding `CO[C@H]1/C=C/C[C@H](C)[C@@H](C)S(=O)(=O)NC(=O)c2ccc3c(c2)N(C[C@@H]2CC[C@H]21)C[C@@]1(CCCc2cc(Cl)ccc21)CO3` [AMG-176], the EC50 was 105 nM and 130 nM and 174 nM in the assay with AMO-1 cells (setting [5]); 90.6 nM in the assay with AMO-1 cells (setting [6]); 90.6 nM in the assay on AMO-1 cells (setting [7]); 195 nM in the assay on H929 cells (setting [9]); 195 nM with H929 cells (setting [10]); > 10000 nM with DLD-1 cells (setting [12]). Further, the EC50 is > 10000 nM in the assay with DLD-1 cells (setting [13]); 106 nM with MV4-11 cells (setting [14]); 106 nM in the assay with MV4-11 cells (setting [15]); 85.5 nM and 203 nM in the assay on MV4-11 cells (setting [17]).
For `Cc1c2c(nn1C)CSCc1cc(n(C)n1)CSc1cc(c3ccccc3c1)OCCCc1c(C(=O)O)n(C)c3c-2c(Cl)ccc13` [AZD5991, reference compound], the EC50 is 22.9 nM in the assay with AMO-1 cells (setting [1]), 31.7 nM with H929 cells (setting [2]), > 10000 nM in the assay on DLD-1 cells (setting [3]) and 34.9 nM with MV4-11 cells (setting [4]).
For the compound `Cc1c2c(nn1C)CSCc1cc(n(C)n1)CSc1cc(c3ccccc3c1)OCCCc1c(C(=O)O)n(C)c3c-2c(Cl)ccc13` [AZD-5991], the EC50 in the assay on AMO-1 cells (setting [5]) is 18.6 nM and 18.3 nM and 31.9 nM; in the assay with AMO-1 cells (setting [6]), 22.9 nM; with AMO-1 cells (setting [7]) it was 22.9 nM; in the assay on AMO-1 cells (setting [8]) it was 22.8 nM; with H929 cells (setting [9]) it was 31.6 nM; with H929 cells (setting [10]), 31.6 nM. Also, the EC50 in the assay with H929 cells (setting [11]) is 22 nM and 20.4 nM and 19.8 nM and 64.4 nM; in the assay with DLD-1 cells (setting [12]) it was > 10000 nM; in the assay with DLD-1 cells (setting [13]) it was > 10000 nM; with MV4-11 cells (setting [14]), 34.9 nM; in the assay with MV4-11 cells (setting [15]), 34.9 nM; in the assay with MV4-11 cells (setting [16]), 36.3 nM. Besides, the EC50 with MV4-11 cells (setting [17]) is 35 nM and 33.3 nM.
Turning to `Cc1c(Cl)c2c(Cl)c(C)c1-c1c(-c3ccc(F)cc3)sc3ncnc(c13)O[C@@H](C(=O)O)Cc1cc(ccc1OCc1ccnc(-c3ccc(OC[C@H]4COCCO4)cc3)n1)OC[C@@H](CN1CCN(C)CC1)O2` [Compound A-1747745.7], the “SKBR3 BAK Fig 2D” value with SKBR3 cells (SKBR3 BAK-/-, Log [A-1747745.7] uM 0.045757) is 84.0406 and 88.7361 and 91.3691; in the assay on SKBR3 cells (SKBR3 BAK-/-, Log [A-1747745.7] uM 0.522879) it was 91.5492 and 90.6375 and 98.324; in the assay on SKBR3 cells (SKBR3 BAK-/-, Log [A-1747745.7] uM 1), 71.243 and 87.693 and 82.7613; in the assay with SKBR3 cells (SKBR3 BAK-/-, Log [A-1747745.7] uM -0.43136), 93.7393 and 91.7734 and 95.9555; with SKBR3 cells (SKBR3 BAK-/-, Log [A-1747745.7] uM -0.90849), 91.4405 and 96.0162 and 91.1767; in the assay on SKBR3 cells (SKBR3 BAK-/-, Log [A-1747745.7] uM -1.38561) it was 96.4117 and 96.5016 and 91.1114. In addition, the “SKBR3 BAK Fig 2D” value in the assay on SKBR3 cells (SKBR3 BAK-/-, Log [A-1747745.7] uM -1.86273) is 100.833 and 96.8873 and 90.9219; with SKBR3 cells (SKBR3 BAK-/-, Log [A-1747745.7] uM -2.33985), 101.031 and 99.3037 and 92.3815; in the assay on SKBR3 cells (SKBR3 BAK-/-, Log [A-1747745.7] uM -2.81697) it was 103.475 and 99.2425 and 96.192; with SKBR3 cells (SKBR3 BAK-/-, Log [A-1747745.7] uM -3.29409), 92.6268 and 101.141 and 97.8192; with SKBR3 cells (SKBR3 BAK-/-, Log [A-1747745.7] uM -3.79) it was 106.888 and 100.173 and 98.0201; in the assay on SKBR3 cells (SKBR3 Parent, Log [A-1747745.7] uM -1.86273), 28.8447 and 52.516 and 42.8969. In addition, the “SKBR3 BAK Fig 2D” value was 83.0425 and 94.5116 and 88.5924 in the assay on SKBR3 cells (SKBR3 Parent, Log [A-1747745.7] uM -2.33985); 98.7606 and 99.166 and 97.8729 in the assay on SKBR3 cells (SKBR3 Parent, Log [A-1747745.7] uM -2.81697); 89.9706 and 97.7937 and 96.3217 in the assay with SKBR3 cells (SKBR3 Parent, Log [A-1747745.7] uM -3.29409); 100.8 and 103.293 and 99.6415 in the assay with SKBR3 cells (SKBR3 Parent, Log [A-1747745.7] uM -3.79).
